The source of these data is US8318949B2, “Organic compounds” (Novartis AG, priority 2008, dated 2012).

SMILES strings stand for the structures. Bounds are passed on as bounds.

`Cc1nc(-n2cnn(CC3CC3)c2=O)sc1C(=O)NCc1cc[nH]n1` [Example 14.1, N-((1H-pyrazol-3-yl)methyl)-2-(1-(cyclopropylmethyl)-5-oxo-1H-1,2,4-triazol-4(5H)-yl)-4-methylthiazole-5-carboxamide]: the melting point lay within 167 to 168 °C.
With `Cc1nc(N2C(=O)N(Cc3ccc(F)cc3)C[C@@H]2C)sc1C(N)=O` [Example 1.12, (S)-2-(3-(4-fluorobenzyl)-5-methyl-2-oxoimidazolidin-1-yl)-4-methylthiazole-5-carboxamide] the figure was 197 to 198 °C; with `Cc1nc(-n2cnn(CC3CC3)c2=O)sc1C(=O)NCc1cocn1` [Example 14.2, 2-(1-(cyclopropylmethyl)-5-oxo-1H-1,2,4-triazol-4(5H)-yl)-4-methyl-N-(oxazol-4-ylmethyl)thiazole-5-carboxamide], 157 to 158 °C.
`Cc1nc(N2CCN(Cc3ccc(C(F)(F)F)nc3)C2=O)sc1C(N)=O` [Example 1.10, 4-methyl-2-(2-oxo-3-((6-(trifluoromethyl)pyridine-3-yl)methyl)imidazolidin-1-yl)thiazole-5-carboxamide] came in with a melting point of 225 to 228 °C.
With `Cc1nc(N2CCN(CCCC(F)(F)F)C2=O)sc1C(=O)NCc1ccncc1` [Example 12.7, 4-methyl-2-(2-oxo-3-(4,4,4-trifluorobutyl)imidazolidin-1-yl)-N-(pyridin-4-ylmethyl)thiazole-5-carboxamide] the figure was 178 to 181 °C; with `Cc1nc(N2C[C@H](C)N(Cc3ccc(F)cc3)C2=O)sc1C(N)=O` [Example 1.3, (S)-2-(3-(4-fluorobenzyl)-4-methyl-2-oxoimidazolidin-1-yl)-4-methylthiazole-5-carboxamide], 192 to 194 °C; with `Cc1ncc(CNC(=O)c2sc(N3CCN(CC4CC4)C3=O)nc2C)s1` [Example 12.14, 2-(3-(cyclopropylmethyl)-2-oxoimidazolidin-1-yl)-4-methyl-N-((2-methylthiazol-5-yl)methyl)thiazole-5-carboxamide], 165 to 167 °C.
Consider `Cc1nc(N2CCN(CC3CC3)C2=O)sc1-c1cc[nH]n1` [Example 7, 1-(cyclopropylmethyl)-3-(4-methyl-5-(1H-pyrazol-3-yl)thiazol-2-yl)imidazolidin-2-one], for which the melting point fell in the range of 169 to 171 °C.
Consider `Cc1nc(N2C[C@@H](C)N(Cc3ccc(F)cc3)C2=O)sc1C(N)=O` [Example 1.15, (R)-2-(3-(4-fluorobenzyl)-4-methyl-2-oxoimidazolidin-1-yl)-4-methylthiazole-5-carboxamide], for which the melting point lay in the range of 185 to 186 °C.
As for `Cc1nc(N2CCN(Cc3cc(F)cc(F)c3)C2=O)sc1C(N)=O` [Example 1.8, 2-(3-(3,5-difluorobenzyl)-2-oxoimidazolidin-1-yl)-4-methylthiazole-5-carboxamide], the melting point is > 200 °C.
`Cc1nc(N2CCN(Cc3ccc(F)cc3)C2=O)sc1-c1nn[nH]n1` [Example 18.1, 1-(4-fluorobenzyl)-3-(4-methyl-5-(2H-tetrazol-5-yl)thiazol-2-yl)imidazolidin-2-one] showed a melting point of 145 to 149 °C.
With `Cc1nc(N2CCN(CC3CC3)C2=O)sc1C(=O)NCc1ccncn1` [Example 12.10, 2-(3-(cyclopropylmethyl)-2-oxoimidazolidin-1-yl)-4-methyl-N-(pyrimidin-4-ylmethyl)thiazole-5-carboxamide] the figure was 188 to 191 °C.
The molecule `Cc1nc(N2C(=O)N(Cc3ccc(F)cc3)C[C@@H]2C)sc1C(=O)NCc1cnn(C)c1` [Example 2.16, (S)-2-(3-(4-fluorobenzyl)-5-methyl-2-oxoimidazolidin-1-yl)-4-methyl-N-((1-methyl-1H-pyrazol-4-yl)methyl)thiazole-5-carboxamide] registered a melting point of 176 to 177 °C.
In turn, `Cc1nc(N2CCN(CC(C)C)C2=O)sc1C(=O)NCc1ccn(C)n1` [Example 12.22, 2-(3-isobutyl-2-oxoimidazolidin-1-yl)-4-methyl-N-((1-methyl-1H-pyrazol-3-yl)methyl)thiazole-5-carboxamide] displayed a melting point of 158 to 161 °C.
With `Cc1cc(CNC(=O)c2sc(N3CCN(Cc4ccc(F)cc4)C3=O)nc2C)[nH]n1` [Example 2.2, 2-(3-(4-fluorobenzyl)-2-oxoimidazolidin-1-yl)-4-methyl-N-((3-methyl-1H-pyrazol-5-yl)methyl)thiazole-5-carboxamide] the figure was 225 to 226 °C; with `Cc1nc(N2C[C@H](C)N(Cc3ccc(F)cc3)C2=O)sc1C(=O)NCc1ccc(F)c(F)c1` [Example 2.1, (S)-N-(3,4-difluorobenzyl)-2-(3-(4-fluorobenzyl)-4-methyl-2-oxoimidazolidin-1-yl)-4-methylthiazole-5-carboxamide], 62 to 65 °C.
With `Cc1nc(N2CCN(Cc3ccc(F)cc3)C2=O)sc1-c1cc[nH]n1` [Example 9, 1-(4-fluorobenzyl)-3-(4-methyl-5-(1H-pyrazol-3-yl)thiazol-2-yl)imidazolidin-2-one] the figure was 239 to 242 °C.
For the molecule `Cc1csc(CNC(=O)c2sc(N3CCN(CC4CC4(F)F)C3=O)nc2C)n1` (stereo not shown) [Example 16.3, 2-(3-((2,2-difluorocyclopropyl)methyl)-2-oxoimidazolidin-1-yl)-4-methyl-N-((4-methylthiazol-2-yl)methyl)thiazole-5-carboxamide], the melting point was in the range of 157 to 159 °C.
`Cc1nnc(-c2sc(N3CCN(Cc4ccc(C(F)(F)F)cc4)C3=O)nc2C)[nH]1` [Example 3, 1-(4-methyl-5-(5-methyl-4H-1,2,4-triazol-3-yl)thiazol-2-yl)-3-(4-(trifluoromethyl)benzyl)imidazolidin-2-one] came in with a melting point of 273 to 274 °C.
With `Cc1nc(N2CCN(CC3CC3)C2=O)sc1C(=O)NCc1cccnn1` [Example 12.12, 2-(3-(cyclopropylmethyl)-2-oxoimidazolidin-1-yl)-4-methyl-N-(pyridazin-3-ylmethyl)thiazole-5-carboxamide] the figure was 187 to 189 °C; with `Cc1nc(N2CCN(Cc3ccccc3)C2=O)sc1C(N)=O` [Example 10, 2-(3-benzyl-2-oxoimidazolidin-1-yl)-4-methylthiazole-5-carboxamide], 217 to 218 °C; with `Cc1nc(N2CCN(CC3CC3)C2=O)sc1C(=O)NCc1ccncc1` [Example 12.13, 2-(3-(cyclopropylmethyl)-2-oxoimidazolidin-1-yl)-4-methyl-N-(pyridin-4-ylmethyl)thiazole-5-carboxamide], > 200 °C.
`Cc1nc(N2C(=O)N(Cc3ccc(F)cc3)C[C@H]2C)sc1C(=O)NCc1cncs1` [Example 2.19, (R)-2-(3-(4-fluorobenzyl)-5-methyl-2-oxoimidazolidin-1-yl)-4-methyl-N-(thiazol-5-ylmethyl)thiazole-5-carboxamide] showed a melting point of 70 to 73 °C.
With `Cc1nc(N2C[C@@H](C)N(Cc3ccc(F)cc3)C2=O)sc1C(=O)NCc1cncs1` [Example 2.8, (R)-2-(3-(4-fluorobenzyl)-4-methyl-2-oxoimidazolidin-1-yl)-4-methyl-N-(thiazol-5-ylmethyl)thiazole-5-carboxamide] the figure was 66 to 69 °C; with `Cc1nc(N2CCN(CCC3CC3)C2=O)sc1-c1cc[nH]n1` [Example 8, 1-(2-cyclopropylethyl)-3-(4-methyl-5-(1H-pyrazol-3-yl)thiazol-2-yl)imidazolidin-2-one], 147 to 149 °C; with `Cc1nc(N2CCN(CC(C)C)C2=O)sc1C(=O)NCc1cnn(C)c1` [Example 12.21, 2-(3-isobutyl-2-oxoimidazolidin-1-yl)-4-methyl-N-((1-methyl-1H-pyrazol-4-yl)methyl)thiazole-5-carboxamide], 155 to 158 °C.
For `Cc1cncc(CNC(=O)c2sc(N3CCN(CC(C)C)C3=O)nc2C)n1` [Example 12.20, 2-(3-isobutyl-2-oxoimidazolidin-1-yl)-4-methyl-N-((6-methylpyrazin-2-yl)methyl)thiazole-5-carboxamide], the melting point was 139 to 142 °C.
For the molecule `Cc1nc(N2C[C@@H](C)N(Cc3ccc(F)cc3)C2=O)sc1C(=O)NCc1cc(F)cc(F)c1` [Example 2.10, (R)-N-(3,5-difluorobenzyl)-2-(3-(4-fluorobenzyl)-4-methyl-2-oxoimidazolidin-1-yl)-4-methylthiazole-5-carboxamide], the melting point was 159 to 160 °C.
With `Cc1nc(N2CCN(CC3CC3(F)F)C2=O)sc1C(=O)NCc1cccnc1` (stereo not shown) [Example 16, 2-(3-((2,2-difluorocyclopropyl)methyl)-2-oxoimidazolidin-1-yl)-4-methyl-N-(pyridin-3-ylmethyl)thiazole-5-carboxamide] the figure was 169 to 171 °C; with `Cc1nc(N2CCN(CC(C)C)C2=O)sc1C(=O)NCc1ccncc1` [Example 12.17, 2-(3-isobutyl-2-oxoimidazolidin-1-yl)-4-methyl-N-(pyridin-4-ylmethyl)thiazole-5-carboxamide], 185 to 187 °C.
For the molecule `Cc1cc(CNC(=O)c2sc(N3C(=O)N(Cc4ccc(F)cc4)C[C@@H]3C)nc2C)no1` [Example 2.17, (S)-2-(3-(4-fluorobenzyl)-5-methyl-2-oxoimidazolidin-1-yl)-4-methyl-N-((5-methylisoxazol-3-yl)methyl)thiazole-5-carboxamide], the melting point lay within 174 to 175 °C.
Take `Cc1nc(-n2cnn(CCC3CC3)c2=O)sc1C(=O)NCc1cccnc1` [Example 13, 2-(1-(2-cyclopropylethyl)-5-oxo-1H-1,2,4-triazol-4(5H)-yl)-4-methyl-N-(pyridin-3-ylmethyl)thiazole-5-carboxamide]: the melting point lay in the range of 139 to 140 °C.
With `Cc1nc(-n2cnn(Cc3ccc(F)cc3)c2=O)sc1C(=O)NCc1cccc(N(C)C)c1` [Example 16.5, N-(3-(dimethylamino)benzyl)-2-(1-(4-fluorobenzyl)-5-oxo-1H-1,2,4-triazol-4(5H)-yl)-4-methylthiazole-5-carboxamide] the figure was 149 to 151 °C.
Molecule `Cc1nc(N2CCN(Cc3ccc(F)cc3)C2=O)sc1C(=O)NCc1cocn1` [Example 12.16, 2-(3-(4-fluorobenzyl)-2-oxoimidazolidin-1-yl)-4-methyl-N-(oxazol-4-ylmethyl)thiazole-5-carboxamide] returned a melting point of 188 to 191 °C.
